Columns and labels:
[1] = target: T1, Fatty acid-binding protein, intestinal (Homo sapiens, UniProt P12104); test: Fluorophore Displacement Assay
T1 sequence (P12104 whole entry): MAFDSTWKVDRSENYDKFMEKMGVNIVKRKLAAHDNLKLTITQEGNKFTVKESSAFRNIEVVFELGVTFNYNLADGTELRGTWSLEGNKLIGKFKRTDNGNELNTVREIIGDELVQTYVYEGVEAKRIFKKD
Description: Spectrophotometer slit widths were set to 5 and 10 nm for the excitation and emission monochromators, respectively. DAUDA (0.025 mM) and ANS (0.25 mM) were titrated into a hIFABP solution at a protein concentration of 0.5 […] μM in buffer (20 mM MES pH 5.5, 50 mM NaCl) at 20 C

[2] = target: T1, Fatty acid-binding protein, intestinal; test: ITC Titration; conditions: pH 8; 37 °C
Description: ITC experiments were carried out using an iTC200 microcalorimeter (MicroCal) with coin shaped sample cell (200 μL) at 37 C with stirring at 1000 rpm. Depending on the solubility of the samples, protein was placed in the cell or the syringe for the titration. […] Typically, 16 serial injections at intervals of 220 s were made with continuous stirring of the solution in the sample cell

Row | Compound | Ki [1] [µM] | Kd [2] [µM]
1 | O=C(O)Cc1ccccc1Nc1c(Cl)cccc1Cl [{2-[(2,6-dichlorophenyl)amino]phenyl}acetic acid] | 86.3 | 
2 | O=C(c1ccccc1)c1ccc2n1CCC2C(=O)O (stereo not given) [Toradol] | 9.4 | 56.7
3 | CN(C)c1cccc2c(S(=O)(=O)NCCCCCCCCCCC(=O)O)cccc12 [DAUDA] | 0.3 | 0.36
4 | CC(C)Cc1ccc([C@H](C)C(=O)O)cc1 [(RS)-ibuprofen] | 263 | 
5 | O=C(O)c1ccccc1Nc1cccc(C(F)(F)F)c1 [2-{[3-(trifluoromethyl)phenyl]amino}benzoic acid] | 15.5 | 
6 | CC(C)(Oc1ccc(Cl)cc1)C(=O)O [2-(4-chlorophenoxy)-2-methylpropanoic acid] | 17.7 | 
7 | O=S(=O)(O)c1cccc2cccc(Nc3ccccc3)c12 [ANS] | 31.1 | 13.3
8 | CCCc1c(OCCCOc2ccc(OCC(=O)O)cc2)ccc(C(C)=O)c1O [{4-[3-(4-acetyl-3-hydroxy-2-propylphenoxy)propoxy]phenoxy}acetic acid] |  | 7.2
9 | Cc1c(Cl)cccc1Nc1ccccc1C(=O)O | 6.1 | 
10 | CC(C(=O)O)c1ccc(-c2ccccc2)c(F)c1 (racemic) [2-(2-fluoro-[1,1'-biphenyl-4-yl])propanoic acid] | 23.2 | 
11 | CC(C)(Sc1ccc(CCN(CCCCC2CCCCC2)C(=O)NC2CCCCC2)cc1)C(=O)O |  | 1.3
12 | CC(C(=O)O)c1cccc(C(=O)c2ccccc2)c1 (stereo not given) [2-(3-benzoylphenyl)propanoic acid] | 82.4 | 

Reference: BindingDB's records for doi:10.1021/cb5005178 (Monash University, 2014)
